Data on seven compounds can be found in US20240366589A1, “NHE3-BINDING COMPOUNDS AND METHODS FOR INHIBITING PHOSPHATE TRANSPORT” (Ardelyx, Inc., priority 2013, published 2024).

One experiment deals with T1, Human NHE3 (Homo sapiens, UniProt P48764).
T1 construct: expressed in transfected cells; host or cells: Opossum kidney (OK) cells (ATCC), electroporation
T1 sequence (P48764 26-834): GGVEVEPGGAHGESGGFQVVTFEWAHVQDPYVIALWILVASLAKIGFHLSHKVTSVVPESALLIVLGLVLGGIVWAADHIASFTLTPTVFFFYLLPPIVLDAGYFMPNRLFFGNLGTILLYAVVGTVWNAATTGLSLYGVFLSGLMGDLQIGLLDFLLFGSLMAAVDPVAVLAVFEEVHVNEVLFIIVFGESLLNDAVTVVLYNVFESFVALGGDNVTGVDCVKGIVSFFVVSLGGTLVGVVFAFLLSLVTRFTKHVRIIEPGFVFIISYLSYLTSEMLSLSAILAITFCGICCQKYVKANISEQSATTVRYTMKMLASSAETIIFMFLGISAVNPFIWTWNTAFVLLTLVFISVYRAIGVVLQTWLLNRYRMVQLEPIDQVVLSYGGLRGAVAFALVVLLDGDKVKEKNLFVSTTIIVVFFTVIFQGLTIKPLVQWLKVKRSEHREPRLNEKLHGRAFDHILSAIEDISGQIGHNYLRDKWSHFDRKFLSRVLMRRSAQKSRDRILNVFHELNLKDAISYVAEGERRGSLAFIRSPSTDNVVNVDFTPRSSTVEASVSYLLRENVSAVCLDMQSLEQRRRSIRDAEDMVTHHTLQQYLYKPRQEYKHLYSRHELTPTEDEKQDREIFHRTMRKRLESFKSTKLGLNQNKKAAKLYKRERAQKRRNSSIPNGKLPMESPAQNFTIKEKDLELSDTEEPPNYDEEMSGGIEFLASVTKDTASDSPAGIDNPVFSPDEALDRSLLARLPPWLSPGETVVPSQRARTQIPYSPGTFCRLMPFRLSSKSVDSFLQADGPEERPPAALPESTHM
The experiment can be described thus: Cell-based NHE3 activity under prompt conditions (OK cells, BCECF pH recovery), human NHE3. Conditions: prompt conditions. The protocol:
(§1) Cell-based activity under Prompt Conditions. Rat or human NHE3-mediated Na^+-dependent H antiport was measured using a modification of the pH sensitive dye method originally reported by Paradiso (PNAS USA. 81:7436-7440, 1984). Opossum kidney (OK) cells were obtained from the ATCC and propagated per their instructions. The rat NHE3 gene (GenBank M85300) or the human NHE3 gene (GenBank NM_004174.1) was introduced into OK cells via electroporation, and cells were seeded into 96 well plates and grown overnight. Medium was aspirated from the wells, cells were washed twice with NaCl-HEPES buffer (100 mM NaCl, 50 mM HEPES, 10 mM glucose, 5 mM KCl, 2 mM CaCl2, 1 mM MgCl2, pH 7.4), then incubated for 30 min at room temperature with NH4Cl-HEPES buffer (20 mM NH4Cl, 80 mM NaCl, 50 mM HEPES, 5 mM KCl, 2 mM CaCl2, 1 mM MgCl2, pH 7.4) containing 5 μM bis(acetoxymethyl) 3,3′-(3′,6′-bis(acetoxymethoxy)-5-((acetoxymethoxy)carbonyl)-3-oxo-3H-spiro[isobenzofuran-1,9′-xanthene]-2′,7′-diyl)dipropanoate (BCECF-AM).
(§2) Cells were washed twice with Ammonium free, Na^+-free HEPES (100 mM choline, 50 mM HEPES, 10 mM glucose, 5 mM KCl, 2 mM CaCl2, 1 mM MgCl2, pH 7.4) and incubated in the same buffer for 10 minutes at room temperature to lower intracellular pH. […] Initial rates were plotted as the average 2 or more replicates, and pIC50 values were estimated using GraphPad Prism.
(§3) Cell-based activity of NHE3 Activity under ‘Prompt’ Conditions. This assay was performed as described in Example 1 (supra).

Experiment [1] deals with absorption of sodium from the intestinal lumen. Put plainly: Inhibition of intestinal sodium absorption: urinary sodium (uNa) 16 h after single oral dose in rats. In kind it is in vivo, rat. The following applies: oral gavage, 16 h post-dose. How it is done: (§4) Inhibition of intestinal sodium and phosphate absorption. Urinary sodium concentration and fecal form were measured to assess the ability of selected example compounds to inhibit the absorption of sodium from the intestinal lumen. Eight-week old Sprague-Dawley rats were purchased from Charles River Laboratories (Hollister, CA), were housed 2 per cage, and acclimated for at least 3 days before study initiation. Animals were fed Harlan Teklad Global 2018 rodent chow (Indianapolis, IN) and water ad libitum throughout the study and maintained in a standard light/dark cycle of 6 AM to 6 PM. On the day of the study, between 4 PM and 5 PM, a group of rats (n=6) were dosed via oral gavage with test compound, or a pharmaceutically acceptable salt thereof, or vehicle (water) at a volume of 10 mL/kg.
(§5) After dose administration animals were placed in individual metabolic cages where they were also fed the same chow in meal form and watered ad libitum. At 16 h post-dose, the urine samples were collected and fecal form was assessed by two independent observations. Fecal forms were scored according to a common scale associated with increasing fecal water to the wettest observation in the cage's collection funnel (1, normal pellet; 2, pellet adhering to sides of collection funnel due to moisture; 3, loss of normal pellet shape; 4, complete loss of shape with a blotting pattern; 5, liquid fecal streams evident). A rat's fecal form score (FFS) was determined by averaging both observational scores for all rats within a group (n=6). The vehicle group average was 1.
For urine samples, the volumes were determined gravimetrically and centrifuged at 3,600×g. The supernatants were diluted 100-fold in deionized Milli-Q water then filtered through a 0.2 μm GHP Pall AcroPrep filter plate (Pall Life Sciences, Ann Arbor, MI) prior to analysis by ion chromatography. Ten microliters of each filtered extract was injected onto a Dionex ICS-3000 ion chromatograph system (Dionex, Sunnyvale, CA). Cations were separated by an isocratic method using 25 mM methanesulfonic acid as the eluent on an IonPac CS12A 2 mm i.d.×250 mm, 8 μm particle size cation exchange column (Dionex). Sodium was quantified using standards prepared from a cation standard mix containing Li^+, Na^+, NH4^+, K^+, Mg^2+, and Ca^2+ (Dionex). The mean mass of sodium urinated for every group in the 16 h period was determined with the vehicle group usually urinating approximately 21 mg sodium. The urine Na (uNa) for rats in the test groups were expressed as a percentage of the vehicle mean and the means were compared to that of the vehicle group by utilizing a one-way analysis of variance coupled with a Dunnett's post hoc test.
Further experiments were performed to test the compounds under the persistent and prompt conditions described above, and to test their effects on urinary excretion of sodium in rats. The latter was performed by orally dosing the compounds in rats (single dose) and measuring urinary Na excretion (as a % of vehicle). The results are indicated as percentage of urinary sodium (UNa %); low values indicate relatively active compounds.

Experiment [2] has as its system phosphorus and calcium levels in the urine of rats. The experiment can be described thus: Urinary excretion of phosphate and calcium in rats (16 h overnight urine). In kind it is in vivo, rat. The following applies: rats, oral gavage, 16 h post-dose.
The test system of experiment [3] is absorption of sodium from the intestinal lumen. The experiment can be described thus: Fecal form score (FFS) 16 h after oral dose in rats. The class given is in vivo, rat. Conditions: oral gavage, 16 h post-dose, scale 1-5. How it is done:
as §4, §5

Another experiment concerns the target T2, Rat NHE3 (Rattus norvegicus, UniProt P26433).
T2 construct: expressed in transfected cells; host or cells: Opossum kidney (OK) cells (ATCC), electroporation
The experiment can be described thus: Cell-based NHE3 activity under prompt conditions (OK cells, BCECF pH recovery), rat NHE3. Conditions: prompt conditions. How it is done: as §1, §2, §3

Molecules are shown by their SMILES.

T2 sequence (P26433 29-831): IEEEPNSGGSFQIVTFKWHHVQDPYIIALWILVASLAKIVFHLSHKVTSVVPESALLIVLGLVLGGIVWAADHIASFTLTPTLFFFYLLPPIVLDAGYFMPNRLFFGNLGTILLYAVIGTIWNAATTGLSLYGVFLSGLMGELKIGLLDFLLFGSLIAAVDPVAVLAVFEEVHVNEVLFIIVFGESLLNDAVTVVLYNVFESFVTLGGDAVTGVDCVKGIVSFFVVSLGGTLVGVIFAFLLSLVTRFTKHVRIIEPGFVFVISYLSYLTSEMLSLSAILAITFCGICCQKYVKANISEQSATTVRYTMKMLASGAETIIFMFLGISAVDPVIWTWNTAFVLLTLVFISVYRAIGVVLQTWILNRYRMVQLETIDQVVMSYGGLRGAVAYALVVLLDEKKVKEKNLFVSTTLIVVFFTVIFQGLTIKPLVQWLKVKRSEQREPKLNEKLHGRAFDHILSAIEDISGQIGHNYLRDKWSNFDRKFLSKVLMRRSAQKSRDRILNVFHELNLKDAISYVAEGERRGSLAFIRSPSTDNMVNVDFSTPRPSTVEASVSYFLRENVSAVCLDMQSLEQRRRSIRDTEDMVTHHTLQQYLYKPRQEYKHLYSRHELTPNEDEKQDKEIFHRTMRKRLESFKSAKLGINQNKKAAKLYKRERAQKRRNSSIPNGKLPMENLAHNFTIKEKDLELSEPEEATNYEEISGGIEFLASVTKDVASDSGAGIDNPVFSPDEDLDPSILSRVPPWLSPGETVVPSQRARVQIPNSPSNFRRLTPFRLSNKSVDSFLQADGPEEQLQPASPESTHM

For the compound `CN1Cc2c(Cl)cc(Cl)cc2C(c2cccc(NC(=O)[C@H](O)[C@@H](O)[C@H](O)[C@H](O)CO)c2)C1` (stereo in doubt) [compound 3], the “Prompt Human NHE3 pIC50” value at Human NHE3 stood at 7.60. In addition, the “Urine Na % of control” value in experiment [1] (dose 1 mg/kg) worked out at 41%. In addition, the “Urine P % of control” value in experiment [2] (dose 1 mg/kg) worked out at 57%. The “Fecal Form Score average” value in experiment [3] (dose 1 mg/kg) is recorded as 1. For the same compound, the IC50 at Rat NHE3 (read-out: Prompt Rat NHE3 pIC50 (converted)) is 39.8 nM.

On to `CN1Cc2c(Cl)cc(Cl)cc2C(c2cccc(S(=O)(=O)NCCOCCOCCOCCNC(=O)NCCN(CCNC(=O)NCCOCCOCCOCCNS(=O)(=O)c3cccc([C@@H]4CN(C)Cc5c(Cl)cc(Cl)cc54)c3)CCNC(=O)NCCOCCOCCOCCNS(=O)(=O)c3cccc([C@@H]4CN(C)Cc5c(Cl)cc(Cl)cc54)c3)c2)C1` (stereo in doubt) [compound 59], for which the “Prompt Human NHE3 pIC50” value on Human NHE3 amounted to 7.30. In addition, the “Urine Na % of control” value in experiment [1] (dose 10 mg/kg) is 18%. Moreover, in experiment [2] (dose 10 mg/kg), the “Urine P % of control” value came to 45%. Further, the “Fecal Form Score average” value in experiment [3] (dose 10 mg/kg) was determined as 2. The “Prompt Rat NHE3 pIC50” value at Rat NHE3 amounted to 6.90.

Consider `CN1Cc2c(Cl)cc(Cl)cc2C(c2cccc(S(=O)(=O)NCCOCCOCCOCCNC(=O)CN(CCN(CCN(CC(=O)NCCOCCOCCOCCNS(=O)(=O)c3cccc([C@@H]4CN(C)Cc5c(Cl)cc(Cl)cc54)c3)CC(=O)NCCOCCOCCOCCNS(=O)(=O)c3cccc([C@@H]4CN(C)Cc5c(Cl)cc(Cl)cc54)c3)CC(=O)NCCOCCOCCOCCNS(=O)(=O)c3cccc([C@@H]4CN(C)Cc5c(Cl)cc(Cl)cc54)c3)CC(=O)NCCOCCOCCOCCNS(=O)(=O)c3cccc([C@@H]4CN(C)Cc5c(Cl)cc(Cl)cc54)c3)c2)C1` (stereo in doubt) [compound 75], for which the “Prompt Human NHE3 pIC50” value on Human NHE3 is given as 6.90. In addition, the “Urine Na % of control” value in experiment [1] (dose 10 mg/kg) is 81%. Moreover, the “Urine P % of control” value in experiment [2] (dose 10 mg/kg) was determined as 55%. For the same compound, the “Fecal Form Score average” value in experiment [3] (dose 10 mg/kg) stood at 1. Also, the “Prompt Rat NHE3 pIC50” value on Rat NHE3 was 6.30.

As to `CN1Cc2c(Cl)cc(Cl)cc2C(c2cccc(S(=O)(=O)NCCOCCOCCOCCNC(=O)CCC(CCC(=O)NCCOCCOCCOCCNS(=O)(=O)c3cccc([C@@H]4CN(C)Cc5c(Cl)cc(Cl)cc54)c3)(CCC(=O)NCCOCCOCCOCCNS(=O)(=O)c3cccc([C@@H]4CN(C)Cc5c(Cl)cc(Cl)cc54)c3)NCc3ccc(-c4ccc(Cl)cc4)cc3)c2)C1` (stereo in doubt) [compound 114], the “Prompt Human NHE3 pIC50” value at Human NHE3 is reported as <5.00. Also, the “Urine Na % of control” value in experiment [1] (dose 10 mg/kg) amounted to 45%. Further, the “Urine P % of control” value in experiment [2] (dose 10 mg/kg) came out at 100%. Further, the “Fecal Form Score average” value in experiment [3] (dose 10 mg/kg) came to 3. Further, the “Prompt Rat NHE3 pIC50” value on Rat NHE3 is <5.00.

In the case of `CN1CCN(C(=O)NC(CCC(=O)NCCOCCOCCNS(=O)(=O)c2cccc(C3CN(C)Cc4c(Cl)cc(Cl)cc43)c2)(CCC(=O)NCCOCCOCCNS(=O)(=O)c2cccc([C@@H]3CN(C)Cc4c(Cl)cc(Cl)cc43)c2)CCC(=O)NCCOCCOCCNS(=O)(=O)c2cccc([C@@H]3CN(C)Cc4c(Cl)cc(Cl)cc43)c2)CC1` (stereo in doubt) [compound 153], the “Prompt Human NHE3 pIC50” value at Human NHE3 worked out at 7.50. The “Urine Na % of control” value in experiment [1] (dose 3 mg/kg) is listed as 28%. Moreover, the “Urine P % of control” value in experiment [2] (dose 3 mg/kg) stood at 84%. The “Fecal Form Score average” value in experiment [3] (dose 3 mg/kg) was 3. Moreover, the “Prompt Rat NHE3 pIC50” value on Rat NHE3 was found to be 6.90.

As to `COCCNS(=O)(=O)c1cccc(C2CN(C)Cc3c(Cl)cc(Cl)cc32)c1` (centres unmarked) [compound 2], the “Prompt Human NHE3 pIC50” value at Human NHE3 is on record as 6.50. For the same compound, in experiment [1] (dose 10 mg/kg), the “Urine Na % of control” value was found to be 115%. The “Urine P % of control” value in experiment [2] (dose 10 mg/kg) was 80%. In experiment [3] (dose 10 mg/kg), the “Fecal Form Score average” value is recorded as 1. For the same compound, on Rat NHE3, the “Prompt Rat NHE3 pIC50” value is 6.70.

As to `C/C(=C\c1cc(F)c(Oc2ccc(S(=O)(=O)NCCOCCOCCOCCN)cc2)c(F)c1)C(=O)N=C(N)N` [compound 4], on Human NHE3, the “Prompt Human NHE3 pIC50” value is on record as 6.80. Moreover, the “Urine Na % of control” value in experiment [1] (dose 10 mg/kg) came out at 84%. Besides, the “Urine P % of control” value in experiment [2] (dose 10 mg/kg) came out at 106%. Further, the “Fecal Form Score average” value in experiment [3] (dose 10 mg/kg) came to 1. For the same compound, at Rat NHE3, the “Prompt Rat NHE3 pIC50” value came to 6.90.
